According to patent publication US11331299B2, “Medicinal use of serrulatane diterpenes” (The University of Sydney, priority 2016, dated 2022):
pEC50, pIC50: −log10 of the molar value. Read-outs that look alike come from different tables or passages of the source.

Tested on: 280 human cancer cell lines
Assay: OncoPanel cell proliferation assay (10-day)
Format: cell-based
Details: Homo sapiens; for pEC50: read-out: Cell Count EC50; for GI50: read-out: Cell Count GI50; for pIC50: read-out: Cell Count IC50
[1] = NCI-H292, NCI-H292, Lung - NSCLC
[2] = NCI-H441, NCIH441, Lung - NSCLC
[3] = NCI-H460, NCI-H460, Lung - NSCLC
[4] = NCI-H520, NCI-H520, Lung - NSCLC
[5] = NCI-H596, NCI-H596, Lung - NSCLC
[6] = NCI-H661, NCI-H661, Lung - NSCLC
[7] = NTERA-2-cl-D1, NTERA-2 cl.D1, Testis
[8] = OVCAR-3, OVCAR3, Female GU - Ovary
[9] = RPMI-7951, RPMI-7951, Skin (Melanoma)
[10] = SAOS-2, SaOS2, Soft Tissue - Osteosarcoma

`CC(C)=CCC[C@H](CO)[C@@H]1CC[C@@H](C)c2c1cc(C)c(O)c2O` [Compound 1, 7,8,18-trihydroxyserrulat-14-ene] showed a pEC50 [1] of 5.49, a GI50 [1] of 3.18 µM and a pIC50 [1] of 5.49. For the same molecule, the GI50 (NCI-H295R, Endocrine - Adrenal gland) was 13.5 µM, the pEC50 [2] was 4.92 and the GI50 [2] was 11.7 µM. The pIC50 [2] was 4.92, the pEC50 (NCI-H446, NCIH446, Lung - SCLC) was 4.99 and the GI50 (NCI-H446, NCIH446, Lung - SCLC) was 10 µM. It also gave a pIC50 (NCI-H446, NCIH446, Lung - SCLC) of 4.99, a pEC50 [3] of 5.63 and a GI50 [3] of 2.33 µM. It also gave a pIC50 [3] of 5.63, a pEC50 (NCI-H508, NCI-H508, Colon) of 4.84 and a GI50 (NCI-H508, NCI-H508, Colon) of 14.3 µM. It also gave a pIC50 (NCI-H508, NCI-H508, Colon) of 4.84, a pEC50 [4] of 5.61 and a GI50 [4] of 2.41 µM. It also gave a pIC50 [4] of 5.61, a pEC50 [5] of 5.06 and a GI50 [5] of 8.41 µM. The pIC50 [5] was 5.06, the pEC50 [6] was 5.64 and the GI50 [6] was 2.28 µM. The pIC50 [6] was 5.64, the pEC50 (NCI-H747, NCI-H747, Colon) was 5.51 and the GI50 (NCI-H747, NCI-H747, Colon) was 3.1 µM. It also gave a pIC50 (NCI-H747, NCI-H747, Colon) of 5.51, a pEC50 [7] of 5.65 and a GI50 [7] of 2.2 µM. The pIC50 [7] was 5.65, the pEC50 (OCUG-1, OCUG-1, Liver) was 5.37 and the GI50 (OCUG-1, OCUG-1, Liver) was 4.29 µM. For the same molecule, the pIC50 (OCUG-1, OCUG-1, Liver) was 5.37, the pEC50 (OE19, OE19, Head and Neck) was 5.49 and the GI50 (OE19, OE19, Head and Neck) was 3.21 µM. It also gave a pIC50 (OE19, OE19, Head and Neck) of 5.49, a pEC50 (OE21, OE21, Head and Neck) of 5.43 and a GI50 (OE21, OE21, Head and Neck) of 3.67 µM. The pIC50 (OE21, OE21, Head and Neck) was 5.43, the pEC50 [8] was 5.82 and the GI50 [8] was 1.52 µM. It also gave a pIC50 [8] of 5.80, a pEC50 (PA-1, Female GU - Ovary) of 5.38 and a GI50 (PA-1, Female GU - Ovary) of 4.21 µM. It also gave a pIC50 (PA-1, Female GU - Ovary) of 5.38, a pEC50 (PANC-1, PANC-1, Pancreas) of 5.54 and a GI50 (PANC-1, PANC-1, Pancreas) of 2.83 µM. It also gave a pIC50 (PANC-1, PANC-1, Pancreas) of 5.54, a pEC50 (PC-3, Prostate) of 5.41 and a GI50 (PC-3, Prostate) of 3.86 µM. For the same molecule, the pIC50 (PC-3, Prostate) was 5.41, the pEC50 (PFSK-1, PFSK-1, CNS - Glioma) was 5.36 and the GI50 (PFSK-1, PFSK-1, CNS - Glioma) was 4.31 µM. For the same molecule, the pIC50 (PFSK-1, PFSK-1, CNS - Glioma) was 5.36, the pEC50 (PSN1, PSN-1, Pancreas) was 5.63 and the GI50 (PSN1, PSN-1, Pancreas) was 2.32 µM. For the same molecule, the pIC50 (PSN1, PSN-1, Pancreas) was 5.63, the pEC50 (RD, Soft Tissue - Sarcoma) was 6.09 and the GI50 (RD, Soft Tissue - Sarcoma) was 0.81 µM. For the same molecule, the pIC50 (RD, Soft Tissue - Sarcoma) was 6.09, the pEC50 (RKO, Colon) was 5.77 and the GI50 (RKO, Colon) was 1.69 µM. The pIC50 (RKO, Colon) was 5.77, the pEC50 (RKOE6, RKOE6, Colon) was 5.76 and the GI50 (RKOE6, RKOE6, Colon) was 1.72 µM. The pIC50 (RKOE6, RKOE6, Colon) was 5.76, the pEC50 (RPMI-6666, RPMI 6666, Lymphoma) was 5.45 and the GI50 (RPMI-6666, RPMI 6666, Lymphoma) was 3.44 µM. The pIC50 (RPMI-6666, RPMI 6666, Lymphoma) was 5.45, the pEC50 [9] was 6.15 and the GI50 [9] was 0.7 µM. For the same molecule, the pIC50 [9] was 6.15, the pEC50 (RPMI-8226, RPMI 8226, Myeloma) was 6.17 and the GI50 (RPMI-8226, RPMI 8226, Myeloma) was 0.67 µM. It also gave a pIC50 (RPMI-8226, RPMI 8226, Myeloma) of 6.17, a pEC50 (RS4-11, RS4, 11, Leukemia) of 5.75 and a GI50 (RS4-11, RS4, 11, Leukemia) of 1.71 µM. For the same molecule, the pIC50 (RS4-11, RS4, 11, Leukemia) was 5.75, the pEC50 (Raji, Lymphoma) was 5.34 and the GI50 (Raji, Lymphoma) was 4.59 µM. For the same molecule, the pIC50 (Raji, Lymphoma) was 5.34, the pEC50 (Ramos, Ramos (RA 1), Lymphoma) was 5.53 and the GI50 (Ramos, Ramos (RA 1), Lymphoma) was 2.96 µM. It also gave a pIC50 (Ramos, Ramos (RA 1), Lymphoma) of 5.53, a pEC50 [10] of 5.70 and a GI50 [10] of 2.04 µM. For the same molecule, the pIC50 [10] was 5.68, the pEC50 (SCC-4, SCC-4, Head and Neck) was 5.33 and the GI50 (SCC-4, SCC-4, Head and Neck) was 4.63 µM. For the same molecule, the pIC50 (SCC-4, SCC-4, Head and Neck) was 5.33, the pEC50 (SCC-9, SCC-9, Head and Neck) was 5.46 and the GI50 (SCC-9, SCC-9, Head and Neck) was 3.44 µM. It also gave a pIC50 (SCC-9, SCC-9, Head and Neck) of 5.46, a pEC50 (SCC-25, SCC-25, Head and Neck) of 5.40 and a GI50 (SCC-25, SCC-25, Head and Neck) of 3.95 µM. The pIC50 (SCC-25, SCC-25, Head and Neck) was 5.40, the pEC50 (SCaBER, Bladder) was 5.51 and the GI50 (SCaBER, Bladder) was 3.1 µM. For the same molecule, the pIC50 (SCaBER, Bladder) was 5.51 and the pEC50 (SH-4, Skin (Melanoma)) was 5.71.
